We go through 14 compounds from patent US20110318393A1, “Substituted Pyrazole Compounds” (MIIKANA THERAPEUTICS, INC., priority 2008, published 2011).

Type in all cases: biochemical
Experiment [1] addresses T1, N-terminal His-tagged human Src (Homo sapiens, UniProt P12931).
T1 construct: His (N); purchased Upstate USA Inc, Charlottesville, Va
The experiment in a line: Src kinase inhibition assay (33P-ATP filter assay). Conditions: 40 minutes, room temperature; less than or equal to 100 nM. On the procedure:
(§1) Compounds were assayed for Src kinase inhibitory activity using N-terminal His-tagged human Src (Upstate USA Inc, 706 Forest Street, Charlottesville, Va.). Serial dilutions of compound were assayed in a final reaction volume of 25 μL by incubating a solution of the above Src kinase (5-10 mU), 8 mM MOPS (3-(N-morpholino)propanesulfonic acid) pH 7.0, 0.2 mM EDTA (ethylenediamine tetracetic acid), 250 μM amino acid sequence KVEKIGEGTYGVVYK (Upstate USA Inc, 706 Forest Street, Charlottesville, Va.), and 10 mM magnesium acetate and [γ-^33P-ATP] (specific activity of about 500 cpm/pmol, concentration as required). The reaction was initiated by the addition of the magnesium acetate and [γ-^33P-ATP] mixture. After incubation for 40 minutes at room temperature, the reaction was stopped by the addition of 5 μL of a 3% phosphoric acid solution. A 10 μL aliquote of the reaction was then spotted onto a P30 filtermat (PerkinElmer, Wellesley, Mass.) and washed three times for five minutes in 75 mM phosphoric acid and once in methanol prior to drying and scintillation counting. Inhibition of Src activity was determined by comparison to assays that contained no inhibitor.

Experiment [2] has as its target T2, N-terminal His6-tagged recombinant human KDR, residues 790-end (Homo sapiens, UniProt P35968).
T2 construct: recombinant human KDR, residues 790-end; His6 (N); purchased Upstate USA Inc, Charlottesville, Va
In words: KDR kinase inhibition assay (33P-ATP filter assay). Conditions: 40 minutes, room temperature; less than or equal to 100 nM. As to the method:
as §1, with “for KDR” for “for Src”, “N-terminal His6-tagged recombinant” for “N-terminal His-tagged”, “human KDR, residues 790-end” for “human Src”, “above KDR” for “above Src”, “acid), 0.33 mg/mL myelin basic protein” for “acid), 250 μM amino acid sequence KVEKIGEGTYGVVYK”, “of KDR” for “of Src”

Experiment [3] has as its target T3, N-terminal GST-tagged recombinant human Flt3, residues 564-end (Homo sapiens, UniProt P36888).
T3 construct: recombinant human Flt3, residues 564-end; GST (N); purchased Upstate USA Inc, Charlottesville, Va
T3 sequence (P36888 564-993 limits assumed): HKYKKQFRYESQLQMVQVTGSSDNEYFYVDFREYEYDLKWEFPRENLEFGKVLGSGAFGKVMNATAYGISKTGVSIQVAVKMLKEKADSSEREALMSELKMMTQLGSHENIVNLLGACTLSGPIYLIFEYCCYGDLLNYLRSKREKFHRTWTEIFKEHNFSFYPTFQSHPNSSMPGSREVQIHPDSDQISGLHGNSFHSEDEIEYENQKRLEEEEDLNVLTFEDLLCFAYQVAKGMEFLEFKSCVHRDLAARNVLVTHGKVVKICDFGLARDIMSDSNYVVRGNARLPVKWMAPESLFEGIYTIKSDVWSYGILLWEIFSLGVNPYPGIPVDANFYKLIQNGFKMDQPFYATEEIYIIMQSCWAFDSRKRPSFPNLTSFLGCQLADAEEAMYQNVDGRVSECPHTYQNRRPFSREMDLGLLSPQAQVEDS
The experiment in a line: Flt3 kinase inhibition assay (33P-ATP filter assay). Conditions: 40 minutes, room temperature; less than or equal to 100 nM. As to the method:
Compounds were assayed for Flt3 kinase inhibitory activity using N-terminal GST-tagged recombinant human Flt3, residues 564-end (Upstate USA Inc, 706 Forest Street, Charlottesville, Va.). Serial dilutions of compound were assayed in a final reaction volume of 25 μL by incubating a solution of the above Flt3 kinase (5-10 mU), 8 mM MOPS (3-(N-morpholino)propanesulfonic acid) pH 7.0, 0.2 mM EDTA (ethylenediamine tetracetic acid), 50 μM amino acid sequence EAIYAAPFAKKK (Upstate USA Inc, 706 Forest Street, Charlottesville, Va.), and 10 mM magnesium acetate and [γ-^33P-ATP] (specific activity of about 500 cpm/pmol, concentration as required). The reaction was initiated by the addition of the magnesium acetate and [γ-^33P-ATP] mixture. After incubation for 40 minutes at room temperature, the reaction was stopped by the addition of 5 μL of a 3% phosphoric acid solution. A 10 μL aliquote of the reaction was then spotted onto a P30 filtermat (PerkinElmer, Wellesley, Mass.) and washed three times for five minutes in 75 mM phosphoric acid and once in methanol prior to drying and scintillation counting. Inhibition of Flt3 activity was determined by comparison to assays that contained no inhibitor.

In the next experiment the target is T4, recombinant Aurora A (Homo sapiens, UniProt O14965).
T4 construct: purchased Upstate, Lake Placid, N.Y
T4 sequence (O14965 1-403): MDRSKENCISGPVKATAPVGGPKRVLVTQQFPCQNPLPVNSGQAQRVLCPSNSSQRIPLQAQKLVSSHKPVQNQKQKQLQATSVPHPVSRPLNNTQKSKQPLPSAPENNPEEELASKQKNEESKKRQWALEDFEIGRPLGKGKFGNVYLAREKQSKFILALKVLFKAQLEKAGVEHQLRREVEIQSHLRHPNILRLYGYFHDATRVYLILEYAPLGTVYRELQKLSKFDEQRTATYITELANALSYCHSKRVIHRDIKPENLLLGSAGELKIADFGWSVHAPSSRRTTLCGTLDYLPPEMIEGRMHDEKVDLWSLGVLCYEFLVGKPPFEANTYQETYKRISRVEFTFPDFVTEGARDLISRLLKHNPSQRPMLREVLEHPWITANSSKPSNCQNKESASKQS
The experiment in a line: Aurora A (Aurora 2) inhibition assay, Z'-Lyte kinase assay. Conditions: ATP 10 μM, 1 h; less than or equal to 100 nM. On the procedure: Compounds were tested for their potency against recombinant Aurora A (Upstate, Lake Placid, N.Y.) using the PanVera Z′-Lyte kinase assay kit-Ser/Thr 1 peptide (Invitrogen, Carlsbad, Calif.). Assays were carried out in kinase assay buffer (50 mM HEPES, pH 7.5, 10 mM MgCl2, 5 mM EGTA, 0.05% Brij-35, 2 mM DTT). Test compounds were initially dissolved in DMSO at 100× the highest tested concentration, then serially diluted to 4× test concentrations in kinase assay buffer. Next, Aurora A (final concentration 200-500 ng/mL), Z′-Lyte Ser/Thr 1 peptide (final concentration 2 μM) and ATP (final concentration 10 μM) were added according to the manufacturer's instructions. Assays were carried out in half-area 96-well white polystyrene assay plates (Corning, Corning, N.Y.) in a final volume of 20 μl. The reaction was allowed to proceed for 1 h at room temperature in the dark, at which point the development reagent and stop reagent were added according to the manufacturer's instructions. Coumarin (Ex. 400 nm, Em. 465 nm) and fluorescein (Ex. 400 nm, Em. 565 nm) fluorescence values were measured on a SpectraFluor Plus plate reader (Tecan, Durham, N.C.). The emission ratio (coumarin/fluorescein) was determined and used to calculate the percent phosphorylation for each well. Wells containing substrate but no kinase and wells containing a phosphopeptide control were used to set 0% and 100% phosphorylation values, respectively. Typically 20-40% of the substrate was phosphorylated in wells without inhibitor. Dose-response curves of relative Aurora A activity vs. inhibitor concentration were plotted with Grafit (Erithacus Software, Horley, Surrey, UK).

T2 sequence (P35968 790-1356 limits assumed): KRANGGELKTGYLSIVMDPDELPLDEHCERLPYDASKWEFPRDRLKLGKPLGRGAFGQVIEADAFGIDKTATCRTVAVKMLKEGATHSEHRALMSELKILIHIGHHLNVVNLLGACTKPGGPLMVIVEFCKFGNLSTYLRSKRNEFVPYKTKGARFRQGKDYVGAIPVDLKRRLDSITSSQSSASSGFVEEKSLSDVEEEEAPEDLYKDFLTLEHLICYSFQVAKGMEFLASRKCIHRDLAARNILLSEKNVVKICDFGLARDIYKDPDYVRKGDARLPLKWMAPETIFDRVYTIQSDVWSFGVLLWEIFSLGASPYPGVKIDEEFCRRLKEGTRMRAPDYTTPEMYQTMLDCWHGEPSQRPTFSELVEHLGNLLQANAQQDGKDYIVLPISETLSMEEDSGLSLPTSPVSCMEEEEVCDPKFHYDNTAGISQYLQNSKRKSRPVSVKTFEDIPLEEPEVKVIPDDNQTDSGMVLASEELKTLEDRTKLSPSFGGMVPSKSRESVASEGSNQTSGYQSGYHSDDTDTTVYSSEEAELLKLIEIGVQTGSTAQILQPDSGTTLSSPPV
T1 sequence (P12931 whole entry): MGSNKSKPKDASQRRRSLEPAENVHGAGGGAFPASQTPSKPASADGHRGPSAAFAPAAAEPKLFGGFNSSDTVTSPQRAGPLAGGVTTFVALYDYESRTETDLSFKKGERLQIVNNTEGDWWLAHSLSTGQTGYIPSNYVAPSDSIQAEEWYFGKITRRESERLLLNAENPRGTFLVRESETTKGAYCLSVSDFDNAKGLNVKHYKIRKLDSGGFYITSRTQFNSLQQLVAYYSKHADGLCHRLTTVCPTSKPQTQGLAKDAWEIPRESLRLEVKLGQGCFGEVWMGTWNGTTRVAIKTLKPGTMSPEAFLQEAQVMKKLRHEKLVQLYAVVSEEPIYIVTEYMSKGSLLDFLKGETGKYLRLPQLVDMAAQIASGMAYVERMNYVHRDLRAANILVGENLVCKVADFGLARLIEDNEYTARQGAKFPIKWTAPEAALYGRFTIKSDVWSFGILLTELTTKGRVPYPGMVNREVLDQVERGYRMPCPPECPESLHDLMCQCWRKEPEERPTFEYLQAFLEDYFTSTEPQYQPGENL

For `Cc1cc(Nc2cc(N3CCN(C4CCN(C)CC4)CC3)nc(/C=C/c3ccccc3)n2)n[nH]1` [Compound 4, (E)-N-(5-methyl-1H-pyrazol-3-yl)-6-(4-(1-methylpiperidin-4-yl)piperazin-1-yl)-2-styrylpyrimidin-4-amine], the half-maximal inhibitory concentration (IC50) (in experiment [1]; in experiment [2]; in experiment [3]; at recombinant Aurora A) was no more than 100 nM each time.

Consider `Cc1cc(Nc2cc(N3CCC(N4CCCC4)CC3)nc(/C=C/c3ccccc3)n2)n[nH]1` [Compound 2, (E)-N-(5-methyl-1H-pyrazol-3-yl)-6-(4-(pyrrolidin-1-yl)piperidin-1-yl)-2-styrylpyrimidin-4-amine], for which the IC50 (in experiment [1]; in experiment [2]; in experiment [3]; on recombinant Aurora A) was no more than 100 nM each time.

In the case of `Cc1cc(Nc2cc(N3CC(N4CCCCC4)C3)nc(/C=C/c3ccccc3)n2)n[nH]1` [Compound 18, (E)-N-(5-methyl-1H-pyrazol-3-yl)-6-(3-(piperidin-1-yl)azetidin-1-yl)-2-styrylpyrimidin-4-amine], the IC50 (in experiment [1]; in experiment [2]; in experiment [3]; on recombinant Aurora A) was no more than 100 nM in each case.

Take `Cc1cc(Nc2cc(N3CCC(CN4CCCCC4)CC3)nc(/C=C/c3ccccc3)n2)n[nH]1` [Compound 30]: the IC50 (in experiment [1]; in experiment [2]; in experiment [3]; at recombinant Aurora A) was no more than 100 nM each time.

For the compound `Cc1cc(Nc2cc(N3CCC(O)(c4ccc(Cl)cc4)CC3)nc(/C=C/c3ccccc3)n2)n[nH]1` [Compound 11, (E)-4-(4-chlorophenyl)-1-(6-(5-methyl-1H-pyrazol-3-ylamino)-2-styrylpyrimidin-4-yl)piperidin-4-ol], in experiment [3], the IC50 (commonly the point on the concentration scale where inhibition reaches its midpoint) was no more than 100 nM.

Regarding `Cc1cc(Nc2cc(N3CCN(c4ccc(C#N)cc4)CC3)nc(/C=C/c3ccccc3)n2)n[nH]1` [Compound 10, (E)-4-(4-(6-(5-methyl-1H-pyrazol-3-ylamino)-2-styrylpyrimidin-4-yl)piperazin-1-yl)benzonitrile], in experiment [3], the half-maximal inhibitory concentration (IC50) is no more than 100 nM.

With `Cc1cc(Nc2cc(N3CCN(CCN4CCOCC4)CC3)nc(/C=C/c3ccccc3)n2)n[nH]1` [Compound 13, (E)-N-(5-methyl-1H-pyrazol-3-yl)-6-(4-(2-morpholinoethyl)piperazin-1-yl)-2-styrylpyrimidin-4-amine], the IC50 (in experiment [1]; in experiment [2]; in experiment [3]; at recombinant Aurora A) was no more than 100 nM in each case.

In the case of `Cc1cc(Nc2cc(N3CCN(CC4CCCO4)CC3)nc(/C=C/c3ccccc3)n2)n[nH]1` (centres unmarked) [Compound 24, (E)-N-(5-methyl-1H-pyrazol-3-yl)-2-styryl-6-(4-((tetrahydrofuran-2-yl)methyl)piperazin-1-yl)pyrimidin-4-amine], the 50% inhibitory concentration (IC50) (in experiment [1]; in experiment [2]; in experiment [3]; on recombinant Aurora A) was no more than 100 nM each time.

Turning to `Cc1cc(Nc2cc(N3CCN(C4CCCCC4)CC3)nc(/C=C/c3ccccc3)n2)n[nH]1` [Compound 9, (E)-6-(4-cyclohexylpiperazin-1-yl)-N-(5-methyl-1H-pyrazol-3-yl)-2-styrylpyrimidin-4-amine], the 50% inhibitory concentration (IC50) (in experiment [1]; in experiment [2]; in experiment [3]; on recombinant Aurora A) was no more than 100 nM in each case.

`Cc1cc(Nc2cc(N3CCN(c4ccccn4)CC3)nc(/C=C/c3ccccc3)n2)n[nH]1` [Compound 14, (E)-N-(5-methyl-1H-pyrazol-3-yl)-6-(4-(pyridin-2-yl)piperazin-1-yl)-2-styrylpyrimidin-4-amine]: the half-maximal inhibitory concentration (IC50) (in experiment [3]; on recombinant Aurora A) was no more than 100 nM throughout.

As for `Cc1cc(Nc2cc(N3CCC(O)(Cc4ccccc4)CC3)nc(/C=C/c3ccccc3)n2)n[nH]1` [Compound 16], the IC50 (in experiment [3]; at recombinant Aurora A) was no more than 100 nM throughout.

Turning to `COC1CCN(C2CN(c3cc(Nc4cc(C)[nH]n4)nc(/C=C/c4ccccc4)n3)C2)CC1` [Compound 1, (E)-6-(3-(4-methoxypiperidin-1-yl)azetidin-1-yl)-N-(5-methyl-1H-pyrazol-3-yl)-2-styrylpyrimidin-4-amine], the IC50 (in experiment [1]; in experiment [2]; in experiment [3]; at recombinant Aurora A) was no more than 100 nM throughout.

Take `Cc1cc(Nc2cc(N3CCN(c4ccc([N+](=O)[O-])cc4)CC3)nc(/C=C/c3ccccc3)n2)n[nH]1` [Compound 12, (E)-N-(5-methyl-1H-pyrazol-3-yl)-6-(4-(4-nitrophenyl)piperazin-1-yl)-2-styrylpyrimidin-4-amine]: the half-maximal inhibitory concentration (IC50) in experiment [2] and in experiment [3] was no more than 100 nM throughout.

For the compound `Cc1cc(Nc2cc(N3CCN(c4ccccc4)CC3)nc(/C=C/c3ccccc3)n2)n[nH]1` [Compound 8, (E)-N-(5-methyl-1H-pyrazol-3-yl)-6-(4-phenylpiperazin-1-yl)-2-styrylpyrimidin-4-amine], in experiment [3], the half-maximal inhibitory concentration (IC50) is no more than 100 nM.
